Data published in patent publication US20060030616A1, “Anhydride modified cantharidin analogues useful in the treatment of cancer” (priority 1998, published 2006).
Like-named read-outs stand apart in the source and are kept apart here.

How the values were obtained:
HCT116 cells [1] = assay: MTT cytotoxicity assay, 72 h; type: cell-based, human; settings: HCT116, p53 wt; read-out: IC50 (mean ± SE) after 72 h continuous exposure
Procedure, shortened: (§1)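 Growth inhibition is determined spectrophotometrically by MTT (540 nm) following a 72 h exposure to the inhibitors, run in triplicate. IC50 marks 50% inhibition of growth, based on the optical density difference between day 0 and day 3.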

SW480 cells = assay: MTT cytotoxicity assay, 72 h; type: cell-based, human; settings: SW480, p53 mt; read-out: IC50 (mean ± SE) after 72 h continuous exposure
Procedure, shortened: as §1

WiDr cells = assay: MTT cytotoxicity assay, 72 h; type: cell-based, human; settings: p53 mt, read-out: IC50 (mean ± SE) after 72 h continuous exposure
Procedure, shortened: as §1

143B cells = assay: MTT cytotoxicity assay, 72 h; type: cell-based, human; settings: p53 mt, read-out: IC50 (mean ± SE) after 72 h continuous exposure
Procedure, shortened: as §1

ADDP cells = assay: MTT cytotoxicity assay, 72 h; type: cell-based, human; settings: p53 mt, read-out: IC50 (mean ± SE) after 72 h continuous exposure
Procedure, shortened: as §1

HCT116 cells [2] = assay: Cell cycle analysis, flow cytometry of propidium iodide stained cells; type: cell-based, human; settings: for Cell Cycle Distribution, G1 / Cell Cycle Distribution, G2 + M / Cell Cycle Distribution, S / Cell Cycle Distribution, sub G1 / Cell cycle remark: 12 h; for Cell cycle response: HCT116, 12 h exposure
Procedure: (§2) The cells are fixed in 70% ethanol and stored at −20° C. until analysis is performed (1-2 weeks). After fixing, the cells are pelleted and incubated in PBS containing propidium iodide ([…]) and RNase A (200 mg/ml) for at least 30 min at room temperature. The samples (2×10^4 events) are analysed using a Becton Dickson FACScan, fluorescence is collected in fluorescence detector 2 (FL2), filter 575/30 nm band pass. Cell cycle distribution is assessed using Cell Quest software (Becton Dickson).
(§3) The ability of the protein phosphatase inhibitors to abrogate the G1 or G2 checkpoint of the cell cycle may be determined by cell cycle analysis using flow cytometry. Briefly, asynchronous cell cultures are harvested 18 h after 6 Gy irradiation and/or 12 h incubation with the protein phosphatase inhibitor. Depending upon the p53 status of the cell line, radiation treatment alone will induce arrest in either G1 and/or G2 phase of the cell cycle.
(§4) Data shown in Table 2 and FIG. 4 show the cell cycle response of L1210, HL60, HT29 and HCT116 cells to cantharidin and the new cantharidin analogues MK-2 and MK-4 after 12 h exposure. In summary, cantharidin and MK-2 produced a similar response and induced G2 arrest in all four cell lines tested. […] HL60 and HCT116 cells. […] The magnitude of the cell cycle arrest induced by these drugs directly correlated with their cytotoxicity in the respective cell lines. […] The cytotoxicity of the […]

HL60 cells = assay: as above; type: cell-based, human; settings: for Cell Cycle Distribution, G1 / Cell Cycle Distribution, G2 + M / Cell Cycle Distribution, S / Cell Cycle Distribution, sub G1 / Cell cycle remark: 12 h; for Cell cycle response: HL60, 12 h exposure
Procedure: as §2, §3, §4

HT29 cells = assay: as above; type: cell-based, human; settings: 12 h
Procedure: as §2, §3, §4

nine cancer cell lines = assay: MTT cytotoxicity assay, 72 h, ranges over cell line panel; type: cell-based
Procedure: (§5) Cells in a subconfluent phase are transferred to 96-well microtitre plates. L1210 cells are plated at a density of 1000 cells/well in 100 μl medium, while all other cell lines are plated at a density of 2000-25000 cells/well. The cells are left for 24 h prior to treatment to ensure exponential growth has been achieved, 24 h after plating (day 0), 100 μl of phosphatase inhibitor is added to each well, control wells received 100 μl of medium only. Drug exposure time is 72 h (day 3). The effect of phosphatase inhibition is tested in triplicate over a concentration range of […]−1×10^−8 M. Growth inhibitory effects are evaluated using the MTT assay and absorbance read at […]. The IC50 is the drug concentration at which cell growth is 50% inhibited based on the difference of optical density on day 0 and day 3 of drug exposure. Cytotoxicity is evaluated using a spectrophotometric assay which determines the percentage of cell growth following exposure of the cells to various concentrations of the phosphatase inhibitors for a period of 72 hours. The subsequent dose response curve is used to calculate IC50 values (the drug concentration at which cell growth is 50% inhibited).
(§6) Anti-cancer screening of the protein phosphatase inhibitors is assessed using the MTT assay. This assay determines cell viability by the ability of mitochondrial dehydrogenase to produce formazan crystals from 3-(4,5-dimethylthiazol-2-yl)-2,5-diphenyltetrazolium bromide. The viable cell number/well is directly proportional to the production of formazan, which following solubilization, can be measured spectrophotometrically (540 nm). This technique is also used by the National Cancer Institute to screen for new anticancer agents.
(§7) As described herein a number of cantharidin analogues have been synthesised and tested for their anticancer activity in nine cancer cell lines using the MTT assay after 72 h exposure. These new analogues are shown in FIG. 2 and have been designated MK-1 through to MK-9.

L1210 cells = assay: MTT cytotoxicity assay, 72 h; type: cell-based, murine; settings: L1210, p53 wt; read-out: IC50 (mean ± SE) after 72 h continuous exposure
Procedure: as §5, §6, §7

## O=C1OC(=O)C2C3C=CC(O3)C12 (stereo not shown) [MK-2]
HCT116 cells [1]
  IC50: 160 ± 10 µM
SW480 cells
  IC50: 155 ± 9 µM
WiDr cells
  IC50: 198 ± 53 µM
143B cells
  IC50: 248 ± 29 µM
ADDP cells
  IC50: 183 ± 17 µM
HCT116 cells [2]; HCT116, 50 μM
  Cell Cycle Distribution, G1: 47.2 percentage of total
  Cell Cycle Distribution, G2 + M: 37.4 percentage of total
  Cell Cycle Distribution, S: 13.8 percentage of total
  Cell Cycle Distribution, sub G1: 1.3 percentage of total
HCT116 cells [2]; HCT116, 100 μM
  Cell Cycle Distribution, G1: 47.2 percentage of total
  Cell Cycle Distribution, G2 + M: 34.5 percentage of total
  Cell Cycle Distribution, S: 16.0 percentage of total
  Cell Cycle Distribution, sub G1: 1.7 percentage of total
HCT116 cells [2]; HCT116, 250 μM
  Cell Cycle Distribution, G1: 52.8 percentage of total
  Cell Cycle Distribution, G2 + M: 34.3 percentage of total
  Cell Cycle Distribution, S: 11.1 percentage of total
  Cell Cycle Distribution, sub G1: 1.4 percentage of total
HCT116 cells [2]; HCT116, 500 μM
  Cell Cycle Distribution, G1: 39.4 percentage of total
  Cell Cycle Distribution, G2 + M: 46.5 percentage of total
  Cell Cycle Distribution, S: 11.3 percentage of total
  Cell Cycle Distribution, sub G1: 2.5 percentage of total
  Cell cycle remark: G2 arrest
HCT116 cells [2]
  Cell cycle response: G2 arrest
HL60 cells; HL60, 50 μM
  Cell Cycle Distribution, G1: 44.1 percentage of total
  Cell Cycle Distribution, G2 + M: 31.4 percentage of total
  Cell Cycle Distribution, S: 23.8 percentage of total
  Cell Cycle Distribution, sub G1: 1.8 percentage of total
HL60 cells; HL60, 100 μM
  Cell Cycle Distribution, G1: 43.3 percentage of total
  Cell Cycle Distribution, G2 + M: 32.4 percentage of total
  Cell Cycle Distribution, S: 23.6 percentage of total
  Cell Cycle Distribution, sub G1: 1.8 percentage of total
HL60 cells; HL60, 250 μM
  Cell Cycle Distribution, G1: 37.7 percentage of total
  Cell Cycle Distribution, G2 + M: 36.4 percentage of total
  Cell Cycle Distribution, S: 23.8 percentage of total
  Cell Cycle Distribution, sub G1: 3.2 percentage of total
  Cell cycle remark: G2 arrest
HL60 cells; HL60, 500 μM
  Cell Cycle Distribution, G1: 17.8 percentage of total
  Cell Cycle Distribution, G2 + M: 43.1 percentage of total
  Cell Cycle Distribution, S: 21.6 percentage of total
  Cell Cycle Distribution, sub G1: 18.8 percentage of total
  Cell cycle remark: Cell death
HL60 cells
  Cell cycle response: G2 arrest
HT29 cells; HT29, 50 μM
  Cell Cycle Distribution, G1: 45.3 percentage of total
  Cell Cycle Distribution, G2 + M: 37.1 percentage of total
  Cell Cycle Distribution, S: 7.6 percentage of total
  Cell Cycle Distribution, sub G1: 9.4 percentage of total
HT29 cells; HT29, 100 μM
  Cell Cycle Distribution, G1: 49.8 percentage of total
  Cell Cycle Distribution, G2 + M: 37.6 percentage of total
  Cell Cycle Distribution, S: 8.2 percentage of total
  Cell Cycle Distribution, sub G1: 3.6 percentage of total
HT29 cells; HT29, 250 μM
  Cell Cycle Distribution, G1: 41.4 percentage of total
  Cell Cycle Distribution, G2 + M: 42.5 percentage of total
  Cell Cycle Distribution, S: 11.2 percentage of total
  Cell Cycle Distribution, sub G1: 4.2 percentage of total
  Cell cycle remark: G2 arrest
HT29 cells; HT29, 500 μM
  Cell Cycle Distribution, G1: 44.5 percentage of total
  Cell Cycle Distribution, G2 + M: 33.6 percentage of total
  Cell Cycle Distribution, S: 15.4 percentage of total
  Cell Cycle Distribution, sub G1: 5.2 percentage of total
  Cell cycle remark: S-phase↑
Nine cancer cell lines; nine cell lines, read-out: IC50 range across all cell lines tested
  IC50: 157 to 248 µM
L1210 cells
  IC50: 185 ± 51 µM

## O=C1OC(O)C2C3CCC(O3)C12 (stereo not shown) [MK-4]
HCT116 cells [1]
  IC50: 78 ± 7 µM
SW480 cells
  IC50: 88 ± 5 µM
WiDr cells
  IC50: 15 ± 3 µM
143B cells
  IC50: 450 µM
ADDP cells
  IC50: 275 ± 56 µM
HCT116 cells [2]; HCT116, 50 μM
  Cell Cycle Distribution, G1: 43.9 percentage of total
  Cell Cycle Distribution, G2 + M: 40.7 percentage of total
  Cell Cycle Distribution, S: 11.4 percentage of total
  Cell Cycle Distribution, sub G1: 4.5 percentage of total
HCT116 cells [2]; HCT116, 100 μM
  Cell Cycle Distribution, G1: 41.4 percentage of total
  Cell Cycle Distribution, G2 + M: 44.1 percentage of total
  Cell Cycle Distribution, S: 13.6 percentage of total
  Cell Cycle Distribution, sub G1: 2.0 percentage of total
HCT116 cells [2]; HCT116, 250 μM
  Cell Cycle Distribution, G1: 36.2 percentage of total
  Cell Cycle Distribution, G2 + M: 46.9 percentage of total
  Cell Cycle Distribution, S: 14.1 percentage of total
  Cell Cycle Distribution, sub G1: 3.9 percentage of total
HCT116 cells [2]; HCT116, 500 μM
  Cell Cycle Distribution, G1: 29.0 percentage of total
  Cell Cycle Distribution, G2 + M: 46.5 percentage of total
  Cell Cycle Distribution, S: 15.7 percentage of total
  Cell Cycle Distribution, sub G1: 9.6 percentage of total
  Cell cycle remark: G2 arrest
HCT116 cells [2]
  Cell cycle response: G2 arrest
HL60 cells; HL60, 50 μM
  Cell Cycle Distribution, G1: 44.7 percentage of total
  Cell Cycle Distribution, G2 + M: 32.3 percentage of total
  Cell Cycle Distribution, S: 22.3 percentage of total
  Cell Cycle Distribution, sub G1: 1.9 percentage of total
HL60 cells; HL60, 100 μM
  Cell Cycle Distribution, G1: 45.3 percentage of total
  Cell Cycle Distribution, G2 + M: 30.6 percentage of total
  Cell Cycle Distribution, S: 22.6 percentage of total
  Cell Cycle Distribution, sub G1: 2.5 percentage of total
HL60 cells; HL60, 250 μM
  Cell Cycle Distribution, G1: 40.0 percentage of total
  Cell Cycle Distribution, G2 + M: 32.0 percentage of total
  Cell Cycle Distribution, S: 23.0 percentage of total
  Cell Cycle Distribution, sub G1: 6.0 percentage of total
HL60 cells; HL60, 500 μM
  Cell Cycle Distribution, G1: 27.8 percentage of total
  Cell Cycle Distribution, G2 + M: 44.4 percentage of total
  Cell Cycle Distribution, S: 22.8 percentage of total
  Cell Cycle Distribution, sub G1: 6.1 percentage of total
  Cell cycle remark: G2 arrest
HL60 cells
  Cell cycle response: G2 arrest
HT29 cells; HT29, 50 μM
  Cell Cycle Distribution, G1: 51.4 percentage of total
  Cell Cycle Distribution, G2 + M: 31.6 percentage of total
  Cell Cycle Distribution, S: 12.3 percentage of total
  Cell Cycle Distribution, sub G1: 4.7 percentage of total
HT29 cells; HT29, 100 μM
  Cell Cycle Distribution, G1: 52.3 percentage of total
  Cell Cycle Distribution, G2 + M: 29.4 percentage of total
  Cell Cycle Distribution, S: 12.5 percentage of total
  Cell Cycle Distribution, sub G1: 6.0 percentage of total
HT29 cells; HT29, 250 μM
  Cell Cycle Distribution, G1: 53.2 percentage of total
  Cell Cycle Distribution, G2 + M: 27.6 percentage of total
  Cell Cycle Distribution, S: 11.9 percentage of total
  Cell Cycle Distribution, sub G1: 7.0 percentage of total
HT29 cells; HT29, 500 μM
  Cell Cycle Distribution, G1: 53.7 percentage of total
  Cell Cycle Distribution, G2 + M: 29.1 percentage of total
  Cell Cycle Distribution, S: 14.1 percentage of total
  Cell Cycle Distribution, sub G1: 3.4 percentage of total
  Cell cycle remark: G1 arrest
Nine cancer cell lines; colon lines, read-out: IC50 range in human colon cancer cell lines
  IC50: 14 to 88 µM
Nine cancer cell lines; leukaemia lines, read-out: IC50 range in leukaemia cells
  IC50: 393 to 680 µM
Nine cancer cell lines; ovarian lines, read-out: IC50 range in ovarian cells
  IC50: 275 to 333 µM
L1210 cells
  IC50: 680 ± 97 µM
